Tested on: 521955-158-R2-J5-PDC complex spheroids, viability
Assay: Anticancer human tumor 521955-158-R2-J5-PDC patient-derived pancreatic carcinoma cell line growth inhibition [RAS]
Conditions: for IC50: curve of first compound; for viability, T/C: stronger effect = lower value
Outline: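 Multi-cell-type spheroids: tumor cells plus HUVEC endothelial cells and mesenchymal stem cells. RAS-pathway inhibitors were combined with targeted agents, each dosed in half-log steps down from clinical Cmax, or from 10 microM when Cmax was unknown.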

[1] = second compound 0.0316 µM, first compound 0.000949 µM
[2] = second compound 0.0316 µM, first compound 0.003 µM
[3] = second compound 0.0316 µM, first compound 0.00949 µM
[4] = second compound 0.0316 µM, first compound 0.03 µM
[5] = second compound 0.0316 µM, first compound 0.0949 µM
[6] = second compound 0.0316 µM, first compound 0.3 µM
[7] = second compound 0.1 µM, first compound 0.000949 µM
[8] = second compound 0.1 µM, first compound 0.003 µM
[9] = second compound 0.1 µM, first compound 0.00949 µM
[10] = second compound 0.1 µM, first compound 0.03 µM
[11] = second compound 0.1 µM, first compound 0.0949 µM
[12] = second compound 0.1 µM, first compound 0.3 µM
[13] = second compound 0.316 µM, first compound 0.000949 µM
[14] = second compound 0.316 µM, first compound 0.003 µM
[15] = second compound 0.316 µM, first compound 0.00949 µM
[16] = second compound 0.316 µM, first compound 0.03 µM
[17] = second compound 0.316 µM, first compound 0.0949 µM
[18] = second compound 0.316 µM, first compound 0.3 µM
[19] = second compound 1 µM, first compound 0.000949 µM
[20] = second compound 1 µM, first compound 0.003 µM
[21] = second compound 1 µM, first compound 0.00949 µM
[22] = second compound 1 µM, first compound 0.03 µM
[23] = second compound 1 µM, first compound 0.0949 µM
[24] = second compound 1 µM, first compound 0.3 µM
[25] = second compound 3.16 µM, first compound 0.000949 µM
[26] = second compound 3.16 µM, first compound 0.003 µM
[27] = second compound 3.16 µM, first compound 0.00949 µM
[28] = second compound 3.16 µM, first compound 0.03 µM
[29] = second compound 3.16 µM, first compound 0.0949 µM
[30] = second compound 3.16 µM, first compound 0.3 µM
[31] = second compound 10 µM, first compound 0.000949 µM
[32] = second compound 10 µM, first compound 0.003 µM
[33] = second compound 10 µM, first compound 0.00949 µM
[34] = second compound 10 µM, first compound 0.03 µM
[35] = second compound 10 µM, first compound 0.0949 µM
[36] = second compound 10 µM, first compound 0.3 µM
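Further: compound exposure lasted seven days before the viability read.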
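Wherever viability, T/C is given: spheroids also contain HUVEC endothelial cells and mesenchymal stem cells as stroma.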

CCc1c2c(nc3ccc(O)cc13)-c1cc3c(c(=O)n1C2)COC(=O)[C@]3(O)CC + C#Cc1c(F)ccc2cc(O)cc(-c3ncc4c(N5CC6CCC(C5)N6)nc(OCC56CCCN5CC(F)C6)nc4c3F)c12
IC50 (second compound 0.0316 µM): 2.36 nM | IC50 (second compound 0.1 µM): < 0.949 nM | IC50 (second compound 0.316 µM): 1.13 nM | IC50 (second compound 1 µM): < 0.949 nM | IC50 (second compound 3.16 µM): < 0.949 nM | IC50 (second compound 10 µM): < 0.949 nM | viability, T/C [1]: 68.1% | viability, T/C [2]: 40.9% | viability, T/C [3]: 35.7% | viability, T/C [4]: 20.7% | viability, T/C [5]: 15.3% | viability, T/C [6]: 9.62% | viability, T/C [7]: 43.4% | viability, T/C [8]: 34.2% | viability, T/C [9]: 26.9% | viability, T/C [10]: 22.5% | viability, T/C [11]: 11.4% | viability, T/C [12]: 12.5% | viability, T/C [13]: 51.9% | viability, T/C [14]: 39.5% | viability, T/C [15]: 23.8% | viability, T/C [16]: 18.3% | viability, T/C [17]: 14.3% | viability, T/C [18]: 8.89% | viability, T/C [19]: 41.1% | viability, T/C [20]: 36.1% | viability, T/C [21]: 18.4% | viability, T/C [22]: 16.6% | viability, T/C [23]: 11.3% | viability, T/C [24]: 10.6% | viability, T/C [25]: 41.4% | viability, T/C [26]: 34.6% | viability, T/C [27]: 24.7% | viability, T/C [28]: 15.8% | viability, T/C [29]: 12.8% | viability, T/C [30]: 5.72% | viability, T/C [31]: 30% | viability, T/C [32]: 23% | viability, T/C [33]: 16.8% | viability, T/C [34]: 15.5% | viability, T/C [35]: 11.2% | viability, T/C [36]: 11.8%

CC1(C)CCC(Nc2ncc(C(F)(F)F)c(-c3c[nH]c4c(P(C)(C)=O)c(C#N)ccc34)n2)CN1 (stereo unspecified) + C#Cc1c(F)ccc2cc(O)cc(-c3ncc4c(N5CC6CCC(C5)N6)nc(OCC56CCCN5CC(F)C6)nc4c3F)c12
IC50 (second compound 0.0316 µM): < 0.949 nM | IC50 (second compound 0.1 µM): < 0.949 nM | IC50 (second compound 0.316 µM): < 0.949 nM | IC50 (second compound 1 µM): < 0.949 nM | IC50 (second compound 3.16 µM): < 0.949 nM | IC50 (second compound 10 µM): < 0.949 nM | viability, T/C [1]: 43.7% | viability, T/C [2]: 38.4% | viability, T/C [3]: 37.1% | viability, T/C [4]: 31.4% | viability, T/C [5]: 43.7% | viability, T/C [6]: 41.9% | viability, T/C [7]: 43.5% | viability, T/C [8]: 40.8% | viability, T/C [9]: 33% | viability, T/C [10]: 29.6% | viability, T/C [11]: 39.7% | viability, T/C [12]: 33.8% | viability, T/C [13]: 40.4% | viability, T/C [14]: 37.5% | viability, T/C [15]: 29.9% | viability, T/C [16]: 29.4% | viability, T/C [17]: 30.3% | viability, T/C [18]: 29.2% | viability, T/C [19]: 38.5% | viability, T/C [20]: 31.8% | viability, T/C [21]: 25.5% | viability, T/C [22]: 26.8% | viability, T/C [23]: 24.3% | viability, T/C [24]: 25% | viability, T/C [25]: 33.5% | viability, T/C [26]: 27.8% | viability, T/C [27]: 25.1% | viability, T/C [28]: 25% | viability, T/C [29]: 21.1% | viability, T/C [30]: 24.8% | viability, T/C [31]: 29.7% | viability, T/C [32]: 25.9% | viability, T/C [33]: 20.2% | viability, T/C [34]: 21.2% | viability, T/C [35]: 21.7% | viability, T/C [36]: 20.1%

CCN1CCN(Cc2ccc(Nc3ncc(F)c(-c4cc(F)c5nc(C)n(C(C)C)c5c4)n3)nc2)CC1 + CCn1c(-c2cc(N3CCN(C)CC3)cnc2C(C)OC)c2c3cc(ccc31)-c1csc(n1)CC(NC(=O)C1CC1C)C(=O)N1CCCC(N1)C(=O)OCC(C)(C)C2
IC50 (second compound 0.000949 µM): < 3.16 nM | IC50 (second compound 0.003 µM): < 3.16 nM | IC50 (second compound 0.00949 µM): < 3.16 nM | IC50 (second compound 0.03 µM): < 3.16 nM | IC50 (second compound 0.0949 µM): < 3.16 nM | IC50 (second compound 0.3 µM): < 3.16 nM | viability, T/C (second compound 0.000949 µM, first compound 0.00316 µM): 43.2% | viability, T/C (second compound 0.000949 µM, first compound 0.01 µM): 39.4% | viability, T/C (second compound 0.000949 µM, first compound 0.0316 µM): 39.4% | viability, T/C (second compound 0.000949 µM, first compound 0.1 µM): 31.6% | viability, T/C (second compound 0.000949 µM, first compound 0.316 µM): 43.6% | viability, T/C (second compound 0.000949 µM, first compound 1 µM): 47.6% | viability, T/C (second compound 0.003 µM, first compound 0.00316 µM): 39.4% | viability, T/C (second compound 0.003 µM, first compound 0.01 µM): 40.9% | viability, T/C (second compound 0.003 µM, first compound 0.0316 µM): 41.2% | viability, T/C (second compound 0.003 µM, first compound 0.1 µM): 39.2% | viability, T/C (second compound 0.003 µM, first compound 0.316 µM): 37.9% | viability, T/C (second compound 0.003 µM, first compound 1 µM): 36.6% | viability, T/C (second compound 0.00949 µM, first compound 0.00316 µM): 35.8% | viability, T/C (second compound 0.00949 µM, first compound 0.01 µM): 30.1% | viability, T/C (second compound 0.00949 µM, first compound 0.0316 µM): 28.4% | viability, T/C (second compound 0.00949 µM, first compound 0.1 µM): 22.8% | viability, T/C (second compound 0.00949 µM, first compound 0.316 µM): 27.5% | viability, T/C (second compound 0.00949 µM, first compound 1 µM): 25.9% | viability, T/C (second compound 0.03 µM, first compound 0.00316 µM): 23% | viability, T/C (second compound 0.03 µM, first compound 0.01 µM): 18.4% | viability, T/C (second compound 0.03 µM, first compound 0.0316 µM): 17% | viability, T/C (second compound 0.03 µM, first compound 0.1 µM): 16.8% | viability, T/C (second compound 0.03 µM, first compound 0.316 µM): 16.4% | viability, T/C (second compound 0.03 µM, first compound 1 µM): 16.5% | viability, T/C (second compound 0.0949 µM, first compound 0.00316 µM): 12.1% | viability, T/C (second compound 0.0949 µM, first compound 0.01 µM): 11% | viability, T/C (second compound 0.0949 µM, first compound 0.0316 µM): 11.4% | viability, T/C (second compound 0.0949 µM, first compound 0.1 µM): 8.7% | viability, T/C (second compound 0.0949 µM, first compound 0.316 µM): 13.6% | viability, T/C (second compound 0.0949 µM, first compound 1 µM): 14.8% | viability, T/C (second compound 0.3 µM, first compound 0.00316 µM): 9.79% | viability, T/C (second compound 0.3 µM, first compound 0.01 µM): 8.72% | viability, T/C (second compound 0.3 µM, first compound 0.0316 µM): 10.5% | viability, T/C (second compound 0.3 µM, first compound 0.1 µM): 10% | viability, T/C (second compound 0.3 µM, first compound 0.316 µM): 13.9% | viability, T/C (second compound 0.3 µM, first compound 1 µM): 13.1%

Source: PubChem BioAssay AID2060900 (Molecular Pharmacology Branch, DTP, NCI, 2025)
